Data from US8192962B2, “Processes for detecting toxic substances” (Daikin Industries, Ltd., priority 2001, dated 2012).

Test system: Genes belonging to other category
Test: DNA chip mRNA expression in yeast, genes belonging to other category (Table 9)
Type: cell-based, Saccharomyces cerevisiae S288C
In short: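 Measured as treated-to-untreated fluorescence ratio on a full-genome yeast DNA chip. Cells (S288C, YPD, 25° C.) were exposed in log phase for two hours to one chemical, dosed to curb growth without killing.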

Measured: The level of expressed mRNA in the presence of chemical substance/The level of expressed mRNA in the absence of chemical substance

C=CC=O [(14), acrolein]
1.4: yeast gene YKL013C | yeast gene YKR098C | yeast gene YOL109W | yeast gene YOR362C
2.2: yeast gene YJR086W | yeast gene YKL070W | yeast gene YLR356W | yeast gene YMR004W | yeast gene YOR157C
2.5: yeast gene YKL196C | yeast gene YLR250W | yeast gene YOR265W
1.0: yeast gene YKL139W | yeast gene YLR266C | yeast gene YMR314W | yeast gene YOR117W | yeast gene YOR229W | yeast gene YPL149W | yeast gene YPR108W | yeast gene YPR185W
1.9: yeast gene YIR039C | yeast gene YNL333W
0.6: yeast gene YOR355W | yeast gene YOR383C
1.5: yeast gene YJL146W | yeast gene YLR118C | yeast gene YLR327C | yeast gene YMR091C | yeast gene YNR007C | yeast gene YOR257W | yeast gene YOR327C | yeast gene YOR367W | yeast gene YPL218W | yeast gene YPR015C | yeast gene YPR073C
2.1: yeast gene YJL030W | yeast gene YJR099W | yeast gene YNR069C | yeast gene YOL038W | yeast gene YOR185C | yeast gene YOR298W
2.8: yeast gene YLR178C | yeast gene YMR094W
0.4: yeast gene YNL007C
0.7: yeast gene YJR004C | yeast gene YLR136C | yeast gene YLR429W | yeast gene YOR132W
1.3: yeast gene YJL053W | yeast gene YKL041W | yeast gene YLR093C | yeast gene YLR251W | yeast gene YNR010W | yeast gene YOL164W | yeast gene YPL109C
1.1: yeast gene YJL073W | yeast gene YMR104C | yeast gene YNL093W | yeast gene YOR198C
0.9: yeast gene YJL164C | yeast gene YJL210W | yeast gene YMR027W | yeast gene YMR262W | yeast gene YOL013C | yeast gene YOR181W
2.0: yeast gene YKL103C
1.2: yeast gene YKL193C | yeast gene YLR362W | yeast gene YMR276W | yeast gene YOR036W | yeast gene YOR259C
0.5: yeast gene YKL096W | yeast gene YLR391W | yeast gene YMR219W
0.8: yeast gene YKL008C | yeast gene YKL039W | yeast gene YKL165C | yeast gene YLR120C | yeast gene YMR275C | yeast gene YNL006W | yeast gene YOR124C | yeast gene YOR288C | yeast gene YPL089C | yeast gene YPL154C
1.6: yeast gene YJL035C | yeast gene YKL117W | yeast gene YLR107W | yeast gene YML092C | yeast gene YMR226C
1.8: yeast gene YJL089W | yeast gene YKR014C | yeast gene YOR261C | yeast gene YPR103W
2.6: yeast gene YIR024C | yeast gene YJL116C
